In US5872126A, “Methods and compositions for treating preterm labor” (priority 1997, dated 1999):
Several values for one entry are separate records, joined by “and”; a condition that tells them apart may be missing. Equal values may be shown once.

Assays:
[1] = tested on: parturition in mice homozygous for genetic null mutations of type 1 5α-reductase; details: mice homozygous for type 1 5α-reductase null mutations; cited from earlier work
parturition in the rat = assay: Parturition with test compound and progesterone antagonist RU-486 (Example 3); assay type: in vivo, Sprague-Dawley rat; details: RU-486 10 mg/kg on GD 21 (Group 2)
Protocol: In order to determine if the effects in the experiments conducted in Examples 1 and 2 were due to decreased progesterone catabolism associated with inhibition of 5α-reductase by the 5α-reductase type 1 inhibitor 3-oxo-4-aza-4,7β-dimethyl-16β-(4-chlorophenoxy)-5α-androstane ("test compound"), the following study was performed with the 5α-reductase inhibitor 3-oxo-4-aza-4,7β-dimethyl-16β-(4-chlorophenoxy)-5α-androstane and the progesterone antagonist RU-486.
Fifty-six pregnant female Sprague-Dawley rats (Charles River Laboratories, Raleigh, N.C.), approximately 10.5 weeks old weighing from 212 to 319 grams were employed in the study. They were fed and housed as described in EXAMPLE 1. The females were assigned to the following groups based on a weight independent random allocation scheme:
Control (Control article)
test compound @ 20 mg/kg/day
A dose of 10 mg/kg off RU-486 was selected based on the studies of Abdellilah et al., Progesterone and Mifepristone modify principally the response of circular myometrium to oxytocin in preparturient rats: comparison with response to acetylcholine and to calcium J. Pharmacol. and Exp. Therp.
The drugs were administered by oral gavage. The control article and vehicle consisted of 0.5% methylcellulose in deionized water with 0.02% sodium lauryl sulfate (SLS) and were prepared on a weekly basis and refrigerated when not in use. The test compound formulation (4 mg/mL, in vehicle) was prepared on a weekly basis and was refrigerated when not in use. The RU-486 formulation (2 mg base compound/mL, in 0.5% methylcellulose in deionized water) was prepared on a daily basis.

[2] = tested on: parturition in pregnant rats; details: oral dose 10 mg/kg on GD 21; rats treated with 200 mg/kg progesterone subcutaneously; cited from earlier work
[3] = cited from earlier work; for side effects: human, in vivo
[4] = target: T1, 5α-reductase in rat placenta (Rattus norvegicus, UniProt P24008); assay: 5α-reductase assay, rat placenta microsomes; assay type: biochemical; details: read-out: IC50 finasteride
T1 construct: microsomes prepared from rat placenta; tissue Bioproducts for Science; host or cells: rat placenta (microsomes, 100,000×g pellet of homogenate)
T1 sequence (P24008 1-259): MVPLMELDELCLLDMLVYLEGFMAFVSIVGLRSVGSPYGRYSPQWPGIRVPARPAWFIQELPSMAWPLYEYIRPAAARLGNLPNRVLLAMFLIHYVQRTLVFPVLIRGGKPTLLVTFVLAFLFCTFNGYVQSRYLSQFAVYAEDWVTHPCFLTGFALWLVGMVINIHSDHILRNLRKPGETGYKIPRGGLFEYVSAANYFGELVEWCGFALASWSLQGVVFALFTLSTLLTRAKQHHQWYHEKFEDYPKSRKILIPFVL
Protocol: (§1) The 5α-reductase content of microsomes prepared from rat placenta was determined.
(§2) Rat placenta was obtained from Bioproducts for Science. The tissue was homogenized in 10 volumes of buffer containing 0.25 sucrose, 40 mM potassium phosphate pH 6.5, 5 mM magnesium sulfate, 25 mM potassium chloride, 1 mM phenylmethylsulfonyl fluoride, and 1 mM dithiothreitol using a Potter Elverhjem homogenizer. The homogenate was centrifuged at 100,000×g for 60 minutes at 4° C. The pellet was resuspended in 1.5 volumes of buffer. Glycerol was added to the resuspended pellet to a final concentration of 20%. COS cell expressed rat 5α-reductase was used as the source of type 1 and type 2 in these studies for comparison.
(§3) All samples in the enzyme assay were tested in a reaction mixture containing 33 mM succinic acid, 44 mM imidazole, 33 mM diethanolamine (SID), pH 5.5 and pH 7.5, 0.5 μM [7-^3 H]-testosterone (specific activity approximately 20-30 Ci/mmol), 1.5 μM unlabeled testosterone, 1 mM DTT and […] NADPH in a final volume of […]. The assay was initiated by the addition of enzyme and incubated at 37° C. for 15 min.

rat type 1 5α-reductase = target: T2, rat type 1 5α-reductase (Rattus norvegicus, UniProt P24008); assay: 5α-reductase assay, COS cell expressed rat type 1; assay type: biochemical; details: recombinant rat type 1; read-out: IC50 finasteride
T2 construct: made in house; host or cells: COS cells
T2 sequence (P24008 1-259): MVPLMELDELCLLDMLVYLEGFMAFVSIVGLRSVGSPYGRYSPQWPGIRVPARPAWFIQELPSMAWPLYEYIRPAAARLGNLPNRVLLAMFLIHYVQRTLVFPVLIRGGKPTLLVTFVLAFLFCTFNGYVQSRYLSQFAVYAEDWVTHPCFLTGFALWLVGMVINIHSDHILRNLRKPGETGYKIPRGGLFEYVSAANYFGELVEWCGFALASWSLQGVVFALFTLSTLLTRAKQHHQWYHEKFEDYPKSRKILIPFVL
Protocol: as §2, §3

rat type 2 5α-reductase = target: T3, rat type 2 5α-reductase (Rattus norvegicus, UniProt P31214); assay: 5α-reductase assay, COS cell expressed rat type 2; assay type: biochemical; details: read-out: IC50 finasteride
T3 construct: made in house; host or cells: COS cells
T3 sequence (P31214 1-254): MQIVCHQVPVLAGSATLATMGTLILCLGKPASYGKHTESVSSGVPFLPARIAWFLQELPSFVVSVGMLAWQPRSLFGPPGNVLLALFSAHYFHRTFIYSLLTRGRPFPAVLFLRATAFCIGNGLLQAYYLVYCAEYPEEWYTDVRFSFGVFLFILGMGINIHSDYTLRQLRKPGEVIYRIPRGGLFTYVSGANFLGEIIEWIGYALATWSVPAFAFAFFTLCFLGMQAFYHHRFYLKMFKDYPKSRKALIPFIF
Protocol: as §2, §3

human type 2 enzyme = details: cited from earlier work
[5] = tested on: pregnancy and myometrial contractile activity in the rat; details: exogenous progesterone; cited from earlier work
[6] = substrate: C[C@]12CC[C@H]3[C@@H](CCC4=CC(=O)CC[C@@]43C)[C@@H]1CC[C@@H]2O; assay: 5α-reductase assay, rat placenta microsomes; assay type: biochemical; details: other: rat placenta microsomes; 37.0 °C
Protocol: as §1, §2, §3

[7] = substrate: C[C@]12CC[C@H]3[C@@H](CCC4=CC(=O)CC[C@@]43C)[C@@H]1CC[C@@H]2O; assay: 5α-reductase assay, COS cell expressed rat type 1; assay type: biochemical; details: other: recombinant rat type 1; 37.0 °C
Protocol: as §2, §3

[8] = substrate: C[C@]12CC[C@H]3[C@@H](CCC4=CC(=O)CC[C@@]43C)[C@@H]1CC[C@@H]2O; assay: 5α-reductase assay, COS cell expressed rat type 2; assay type: biochemical; details: other: rat type 2; 37.0 °C
Protocol: as §2, §3

C[C@]12CC[C@@H](O)C[C@@H]1CC[C@@H]1[C@@H]2CC[C@]2(C)[C@@H](O)CC[C@@H]12 [Example 3α-Adiol, 5α-androstan-3α,17β-diol]
mice in which parturition was induced [1]: 93%

CC#C[C@]1(O)CC[C@H]2[C@@H]3CCC4=CC(=O)CCC4=C3[C@@H](c3ccc(N(C)C)cc3)C[C@@]21C [RU-486, reference compound]
Mean Length of Gestation ± SD (parturition in the rat; only females completing delivery, 10 mg/kg): 22.3 days and 22.3 ± 0.4 days
number of females completing parturition (parturition in the rat; delivery day GD 22.0): 7
number of females completing parturition (parturition in the rat; delivery day GD 22.5): 5
number of females completing parturition (parturition in the rat; delivery day GD 23.0): 2
induction of parturition [2]: able to induce parturition
mice in which parturition was induced [1]: 100%

CCO [ethanol]
effectiveness in preventing premature labor ([3]; compared with ritodrine): as effective as ritodrine in preventing premature labor
reduction in the incidence of fetal respiratory distress ([3]; compared with ritodrine): does not produce a corresponding reduction in the incidence of fetal respiratory distress

CC(C)(C)NC(=O)[C@H]1CC[C@H]2[C@@H]3CC[C@H]4NC(=O)C=C[C@]4(C)[C@H]3CC[C@]12C [finasteride, 17β-(N-tert-butylcarbamoyl)-3-oxo-4-aza-5α-androst-1-en-3-one]
IC50 [4]: 0.011 µM
IC50 (rat type 1 5α-reductase): 0.013 µM
IC50 (rat type 2 5α-reductase): 0.001 µM
inhibition of the human type 2 enzyme (human type 2 enzyme): potent inhibitor

O=S(=O)([O-])[O-].[Mg+2] [magnesium sulfate]
adverse effects at plasma concentrations above the therapeutic range ([3]; above 4 to 8 mg/dL): inhibition of cardiac conduction and neuromuscular transmission, respiratory depression and cardiac arrest

CC(=O)[C@H]1CC[C@H]2[C@@H]3CCC4=CC(=O)CC[C@]4(C)[C@H]3CC[C@]12C [progesterone]
effect on pregnancy and myometrial contractile activity [5]: prolong pregnancy and impair myometrial contractile activity

CC(NCCc1ccc(O)cc1)C(O)c1ccc(O)cc1 (stereo not drawn) [ritodrine]
side effects [3]: tachycardia, increased renin secretion, hyperglycemia (and reactive hypoglycemia in the infant)

CC(C)(C)NCC(O)c1ccc(O)c(CO)c1 (stereo not drawn) [salbutamol]
side effects [3]: side effects similar to those of ritodrine

CC(C)(C)NCC(O)c1cc(O)cc(O)c1 (stereo not drawn) [terbutaline]
side effects [3]: side effects similar to those of ritodrine

B1: 5α-reductase in rat placenta (Rattus norvegicus) (protein)
chain: MVPLMELDELCLLDMLVYLEGFMAFVSIVGLRSVGSPYGRYSPQWPGIRVPARPAWFIQELPSMAWPLYEYIRPAAARLGNLPNRVLLAMFLIHYVQRTLVFPVLIRGGKPTLLVTFVLAFLFCTFNGYVQSRYLSQFAVYAEDWVTHPCFLTGFALWLVGMVINIHSDHILRNLRKPGETGYKIPRGGLFEYVSAANYFGELVEWCGFALASWSLQGVVFALFTLSTLLTRAKQHHQWYHEKFEDYPKSRKILIPFVL
notes: microsomes prepared from rat placenta; tissue Bioproducts for Science; host or cells: rat placenta (microsomes, 100,000×g pellet of homogenate)
Km [6]: 5.2 µM

B2: rat type 1 5α-reductase (Rattus norvegicus) (protein)
chain: MVPLMELDELCLLDMLVYLEGFMAFVSIVGLRSVGSPYGRYSPQWPGIRVPARPAWFIQELPSMAWPLYEYIRPAAARLGNLPNRVLLAMFLIHYVQRTLVFPVLIRGGKPTLLVTFVLAFLFCTFNGYVQSRYLSQFAVYAEDWVTHPCFLTGFALWLVGMVINIHSDHILRNLRKPGETGYKIPRGGLFEYVSAANYFGELVEWCGFALASWSLQGVVFALFTLSTLLTRAKQHHQWYHEKFEDYPKSRKILIPFVL
notes: made in house; host or cells: COS cells
Km [7]: 1.7 µM

B3: rat type 2 5α-reductase (Rattus norvegicus) (protein)
chain: MQIVCHQVPVLAGSATLATMGTLILCLGKPASYGKHTESVSSGVPFLPARIAWFLQELPSFVVSVGMLAWQPRSLFGPPGNVLLALFSAHYFHRTFIYSLLTRGRPFPAVLFLRATAFCIGNGLLQAYYLVYCAEYPEEWYTDVRFSFGVFLFILGMGINIHSDYTLRQLRKPGEVIYRIPRGGLFTYVSGANFLGEIIEWIGYALATWSVPAFAFAFFTLCFLGMQAFYHHRFYLKMFKDYPKSRKALIPFIF
notes: as for B2
Km [8]: 0.15 µM
